Experimental data published in patent publication US20240239806A1, “COMPOUNDS, COMPOSITIONS AND METHODS OF TREATING DISORDERS” (Chengdu Anticancer Bioscience, Ltd., priority 2021, published 2024).
Like-named read-outs stand apart in the source and are kept apart here.

Columns and labels:
[1] = system: cervical cancer cell line Hela; test: Soft agar colony formation assay; type: cell-based, human
From the text: (§1) Measuring the ability of cells to grow in soft agar has been popularly believed as the gold standard assay for cellular transformation in vitro. In the Soft Agar Assay, cells grow from single cells to cell colonies in a semi-solid agar solution that keeps them away from the solid surface and allows growth in an anchorage-independent way.
(§2) The anchorage-independent growth of cells is one of the hallmarks of cancer cells. Normal epithelial cells are supported by basement membranes that provide survival and proliferative signals while undergo a type of apoptosis called anoikis when lose their attachment to the extracellular matrix. Cancer cells, in contrast, evade detachment-induced apoptosis, leading to uncontrolled proliferation and metastasis. The Soft Agar Colony Formation Assay allows testing of the therapeutic efficacy of compounds against anchorage-independent 3D growth of cancer cells in vin. The assay was performed in 6-well plates with two layers of agar. For the first, 0.75% agar in DMEM medium was melted in a microwave oven and poured to form a bottom layer. Once solidified, 10-100K cells in 1 ml of DMEM containing 0.35% agar was added to form the top layer, which was later covered with 0.5 ml of DMEM. Cell culture medium was changed once every two days until colonies were ready to photograph. We test the antitumor activity of select compounds in soft agar colony formation assays. […] The suppression of growth of these three cancer cell lines in 3D culture is consistent with the potent impact of these compounds on cellular proliferation in 2D culture.

[2] = system: NCI-H596; test: MECP in cancer cell line; type: cell-based; conditions: Homo sapiens
Experimental: (§3) Six lung cancer cell lines (NCI-H23, NCI-H460, NCI-H596, NCI-H2170, Calu-6 and A549), two colon cancer cell lines (HCT116 and SW460), one breast cancer cell line MDA-MB-231, one gastric cancer cell line NCI-N87, one prostate cancer cell line DU145, one cervical cancer cell line Hela, and one glioblastoma cell line T98G were obtained from ATCC. The T2 HCC cell line was derived from a mouse liver cancer model initiated by a transgene of MYC. All cell lines were cultured in DMEM (Gibco, Cleveland, TN, USA) supplemented with 5% fetal bovine serum (Gibco), penicillin (100 U/mL)—streptomycin (100 μg/mL) (Gibco, Cat. No. 15140-122), 2 mM L-glutamine (Gibco, 200 mM solution, Cat. No. 25030081), and 1 mM sodium pyruvate (Gibco, 100 mM solution, Cat. No. 11360070) at 37° C. in a humidified incubator that was maintained at 5% CO2.
(§4) We have previously developed a mechanism-informed phenotypic screening assay to identify novel antimitotic agents. Equipped with a prior understanding of the versatile functions of the chromosomal passenger protein (CPP) complex in orchestrating karyokinesis and cytokinesis, the screening assay is to score for phenotypes typically seen when the CPP complex is disabled. Specifically, the parameters for a positive hit are a temporary elevation of mitotic index (MI) at 24 hours of drug treatment and an accumulation of polyploid cells at 48 hours of drug treatment, indicative of mitotic arrest and cytokinetic failure respectively. These parameters exclude compounds that elicit only a prolonged arrest of cells in mitosis, a phenotype typically provoked by spindle toxins. The screening procedure is briefly summarized here. RPEMYC^H2B-GFP cells engineered to express a Histone 2B-EGFP fusion protein were passaged as batches of 96-well plates, 18-24 hours before exposure to the chemical compounds of the present disclosure at concentrations from 1 nM to 30 μM. At 24, 48 or 72 hours after initiation of treatment, cells were analyzed for either an arrest in mitosis or a change in DNA content by GE IN-Cell Analyzer 2000. As set forth in Table 2 below, a value of greater than or equal to 1 nM and less than or equal to 1.0 μM is marked “A”; a value greater than 1.00 μM and less than or equal to 10.0 μM is marked “B”; a value greater than 10.0 μM and less than or equal to 30.0 μM is marked “C”; and a value greater than 30.0 μM is marked “D.”

[3] = system: HCT116; test: MECP in cancer cell line; type: cell-based; conditions: Homo sapiens, HCT-116
Experimental: as §3, §4

[4] = system: T2 HCC; test: MECP in cancer cell line; type: cell-based; conditions: Mus musculus
Experimental: as §3, §4

[5] = system: MDA-MB-231; test: MECP in cancer cell line; type: cell-based; conditions: Homo sapiens
Experimental: as §3, §4

[6] = system: NCI-H460; test: MECP in cancer cell line; type: cell-based; conditions: Homo sapiens
Experimental: as §3, §4

[7] = system: T98G; test: MECP in cancer cell line; type: cell-based; conditions: Homo sapiens
Experimental: as §3, §4

[8] = system: Hela; test: MECP in cancer cell line; type: cell-based; conditions: Homo sapiens
Experimental: as §3, §4

[9] = system: NCI-H596; test: MTT assay of cellular proliferation; type: cell-based; conditions: Homo sapiens, 50% inhibition of cellular proliferation
Experimental: as §3
(§5) The MTT assay measures cellular metabolic activity as a proxy for cell viability and involves the conversion of the water-soluble yellow dye MTT [3-(4,5-dimethylthiazol-2-yl)-2,5-diphenyltetrazolium bromide] into an insoluble purple formazan by the action of mitochondrial reductase. Formazan is then solubilized and its concentration is determined by measuring the optical density (OD) value at a wavelength of 570 nm. The value is in proportional to the number of live cells with excellent linearity up to ˜10^6 cells per well. The MTT assay was used to determine the EC50 value, the concentration of a compound that leads to 50% inhibition of cellular proliferation. Briefly, cells were split when growing to the mid-Log phase. Cells in 100 μL of culture medium were seeded into each well of 96-well microplates and cultivated for 15-24 hours to reach a confluence of 20-30% and were then exposed to drugs at concentrations ranging from 1 nM to 30 μM. At the endpoint, 20 μL of a MTT stock solution in DMSO (5 mg/mL) was added to each well that contains 100 μL of DMEM. The microplates were left in the cell culture incubator for 3-4 h before subjected to solubilization and determination of formazan at A570 in a microplate reader (BioTek ELX808iu). […] Therefore, these compounds might hold a broad utility in the treatment of a large variety of human malignancies.

[10] = system: NCI-H23; test: MTT assay of cellular proliferation; type: cell-based; conditions: Homo sapiens, 50% inhibition of cellular proliferation
Experimental: as §3, §5

[11] = system: HCT116; test: MTT assay of cellular proliferation; type: cell-based; conditions: Homo sapiens, HCT-116, 50% inhibition of cellular proliferation
Experimental: as §3, §5

[12] = system: T2 HCC; test: MTT assay of cellular proliferation; type: cell-based; conditions: Mus musculus, 50% inhibition of cellular proliferation
Experimental: as §3, §5

[13] = system: MDA-MB-231; test: MTT assay of cellular proliferation; type: cell-based; conditions: Homo sapiens; MDA-MB-231, MTT, 50% inhibition of cellular proliferation
Experimental: as §3, §5

[14] = system: NCI-H460; test: MTT assay of cellular proliferation; type: cell-based; conditions: Homo sapiens, 50% inhibition of cellular proliferation
Experimental: as §3, §5

[15] = system: T98G; test: MTT assay of cellular proliferation; type: cell-based; conditions: Homo sapiens, 50% inhibition of cellular proliferation
Experimental: as §3, §5

[16] = system: Hela; test: MTT assay of cellular proliferation; type: cell-based; conditions: Homo sapiens, 50% inhibition of cellular proliferation
Experimental: as §3, §5

[17] = system: RPEMYC^H2B-GFP cells; test: Phenotypic screening assay (mitotic arrest, polyploidy); type: cell-based; conditions: 1 nM to 30 μM; for IC50: read-out: Proliferative arrest (>50%)
Outline: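 RPE cells expressing MYC and H2B-EGFP treated with compound at 1 nM–30 μM; mitotic index scored at 24 h and polyploidy (DNA content) at 48 h by automated imaging, with reads at 24, 48 or 72 h. Hits show transient mitotic arrest followed by polyploid accumulation.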

[18] = system: Human Cancer Cells; test: Anchorage-independent growth in 3D culture (FIG. 3); type: cell-based; conditions: FIG. 3 legend, cell line not named
From the text: as §1, §2

[19] = system: NCI-H23; test: MECP in cancer cell line; type: cell-based; conditions: Homo sapiens
Experimental: as §3, with “CO2. […]” for “CO2.”

[20] = system: SW480; test: MECP in cancer cell line; type: cell-based; conditions: Homo sapiens
Experimental: as §3, §4

[21] = system: A549; test: MECP in cancer cell line; type: cell-based; conditions: Homo sapiens
Experimental: as §3, §4

[22] = system: SW480; test: MTT assay of cellular proliferation; type: cell-based; conditions: Homo sapiens, 50% inhibition of cellular proliferation
Experimental: as §3, §5

[23] = system: A549; test: MTT assay of cellular proliferation; type: cell-based; conditions: Homo sapiens, 50% inhibition of cellular proliferation
Experimental: as §3, §5

[24] = system: NCI-N87; test: MTT assay of cellular proliferation; type: cell-based; conditions: Homo sapiens, 50% inhibition of cellular proliferation
Experimental: as §3, §5

[25] = system: NCI-N87; test: MECP in cancer cell line; type: cell-based; conditions: Homo sapiens
Experimental: as §3, with “CO2. […]” for “CO2.”

[26] = read-out: Min. Effective conc. for Polyploidy (≥5%)

SMILES	minimal effective concentration [3]	minimal effective concentration [4]	minimal effective concentration [5]	minimal effective concentration [8]	EC50 [10]	EC50 [11]	EC50 [12]	EC50 [13]	EC50 [16]	minimal effective concentration [17, 26]	minimal effective concentration ([17]; read-out: Mitotic Arrest (≥5%))	IC50 [17]	minimal effective concentration [19]	minimal effective concentration [20]	minimal effective concentration [21]	EC50 [22]	EC50 [23]	EC50 [24]	minimal effective concentration [25]	other results
COC(=O)c1cc(OC)cc(Oc2ccnc3ccccc23)c1 [Compound 8, Methyl 3-methoxy-5-(quinolin-4-yloxy)benzoate]	0.001 to 1 µM	0.001 to 1 µM	0.001 to 1 µM	0.001 to 1 µM	1 to 1000 nM	1 to 1000 nM	1 to 1000 nM	1 to 1000 nM	1 to 1000 nM	0.001 to 1 µM	0.001 to 1 µM	1 to 1000 nM	0.001 to 1 µM							anchorage-independent growth in soft agar [1]: effectively suppressed the anchorage-independent growth; minimal effective concentration [2]: 0.001 to 1 µM; minimal effective concentration [6]: 1 to 10 µM; minimal effective concentration [7]: 1 to 10 µM; EC50 [9]: 1000 to 10000 nM; EC50 [14]: > 30000 nM; EC50 [15]: 1000 to 10000 nM; Anchorage-independent Growth of Human Cancer Cells in 3D Culture [18]: Suppress the Anchorage-independent Growth
COc1cc(Oc2ncnc3cc[nH]c23)cc(-n2cccn2)c1 [Compound 35, 4-(3-methoxy-5-(1H-pyrazol-1-yl)phenoxy)-5H-pyrrolo[3,2-d]pyrimidine]	0.001 to 1 µM	0.001 to 1 µM	0.001 to 1 µM	0.001 to 1 µM	1 to 1000 nM	1 to 1000 nM	1 to 1000 nM	1 to 1000 nM	1 to 1000 nM	0.001 to 1 µM	0.001 to 1 µM	1 to 1000 nM	0.001 to 1 µM	0.001 to 1 µM	0.001 to 1 µM	1 to 1000 nM	1 to 1000 nM	1 to 1000 nM	0.001 to 1 µM	
COc1cc(Oc2ncnc3ccsc23)cc(-n2cccn2)c1 [Compound 38, 4-(3-methoxy-5-(1H-pyrazol-1-yl)phenoxy)thieno[3,2-d]pyrimidine]	0.001 to 1 µM	0.001 to 1 µM	0.001 to 1 µM	0.001 to 1 µM	1 to 1000 nM	1 to 1000 nM	1 to 1000 nM	1 to 1000 nM	1 to 1000 nM	0.001 to 1 µM	0.001 to 1 µM	1 to 1000 nM	0.001 to 1 µM	0.001 to 1 µM	0.001 to 1 µM	1 to 1000 nM	1 to 1000 nM	1 to 1000 nM	0.001 to 1 µM	
COC(=O)c1ccc2nccc(Oc3cc(NC(C)=O)cc(OC)c3)c2c1 [Compound 42, methyl 4-(3-acetamido-5-methoxyphenoxy)quinoline-6-carboxylate]	0.001 to 1 µM	0.001 to 1 µM	0.001 to 1 µM	0.001 to 1 µM	1 to 1000 nM	1 to 1000 nM	1 to 1000 nM	1 to 1000 nM	1 to 1000 nM	0.001 to 1 µM	0.001 to 1 µM	1 to 1000 nM	0.001 to 1 µM	0.001 to 1 µM	0.001 to 1 µM	1 to 1000 nM	1 to 1000 nM	1 to 1000 nM	0.001 to 1 µM	
